{"source": "patent EP4778522A1", "about": "“USE OF PYRROLOPYRIMIDINE COMPOUND AND COMPOSITION THEREOF” (Guangzhou Joyo Pharmatech Co., Ltd., priority 2023, dated 2025)", "key": {"[1]": {"tested_on": "FITC-induced mouse atopic dermatitis model", "assay": "FITC-induced mouse atopic dermatitis model: histopathological scoring of ears", "type": "in vivo, Balb/c mice", "details": "pathological score (0-4), right ear, day 13, 20 mg/dose topical twice a day", "excerpt": "On day 13, all the experimental animals were euthanized by CO2 and cervical dislocation, and then the right ears were collected and fixed in 10% formalin for histopathological analysis.\nAfter the ear tissues were embedded with paraffin, each ear tissue was sliced into 3-5 µm sections. After HE staining, the sections were subjected to routine histopathological evaluation and ear tissue thickness measurement. Table 4 Histopathological scoring criteria"}, "[2]": {"tested_on": "monobenzone-induced mouse vitiligo model", "assay": "Monobenzone-induced mouse vitiligo model: hair depigmentation area scoring", "type": "in vivo, C57BL/6 mice", "set-up": "Hair depigmentation area scoring: scale not given here", "protocol": "• 1) Animals: C57BL/6 mice, specific pathogen-free (SPF), with equal numbers of females and males. The mice were 6-8 weeks old at grouping, with 10 mice per group. The animals were provided by Charles River Laboratories. • 2) Reagents, positive drugs and test drugs\nMonobenzone induction method: after 1 week of adaptive feeding of all the animals, modeling was performed and all black hairs on the back of the mice were removed by a shaver. 10 animals were randomly selected as a normal control group and applied with 50 mg of vaseline once a day; and the remaining 80 animals were used for modeling and applied with 50 mg of 40% monobenzone depigmentation ointment once a day. The applying area of the normal control group and the model group was 2 cm*3 cm of the fixed part of the back, and the modeling was continuously performed for 103 days. In order to prevent the phenomenon that the animals lick the drugs, after the animals were applied with a modeling agent, they needed to be separately placed in an independent cage without padding for a period of time to naturally dry the modeling agent, and then they were placed in a rearing cage for normal rearing. During the modeling process, new hairs grown in the alopecic areas of the backs of the mice were shaved by the shaver and then applied with the drug.\nThe 40% monobenzone depigmentation ointment was applied every day. After modeling for 53 days, according to a depigmentation area score (see scoring criteria of Table 9), 70 animals successfully modeled in modeling group (score ≥ 2) were randomly divided into 7 groups with 10 mice per group. The mean depigmentation area score of the animals in each group was basically consistent before the administration, and the day of grouping was defined as day 0 of the administration treatment period. Table 8 Grouping and administration regimen\nDuring the whole experiment process, the mice in normal control group (G1) were applied with 50 mg of vaseline once a day; and the mice in each model group (G2-G8) were applied with 50 mg of 40% monobenzone ointment once a day. After modeling for 53 days, the mice were grouped and subjected to drug treatment after grouping consecutively for 50 days. The modeling operation was maintained during the drug intervention period. The mice were applied with the drug twice a day for treatment at an interval of 6 hours or more. […]"}, "[3]": {"tested_on": "monobenzone-induced mouse vitiligo model", "assay": "Monobenzone-induced mouse vitiligo model: skin pathological analysis of melanin-containing hair follicles", "type": "in vivo, C57BL/6 mice", "details": "for Number of melanin-containing hair follicles / Proportion of melanin-containing hair follicles (%): 30 mg topical twice a day for 50 days", "protocol": "The mice were euthanized within 2-4 hours after the last administration, and approximately 1 cm^2 of the skin in the center of the depilated part of the mice was taken and fixed with 4% paraformaldehyde. The animal skin tissues were fixed with 4% paraformaldehyde, dehydrated, embedded with paraffin, sectioned and then subjected to HE staining. The stained sections were photographed by white light panoramic scanning, histopathological changes of the skin tissues and inflammatory cell infiltration were observed, and the number of melanin-containing hair follicles and/or the proportion of the melanin-containing hair follicles in the skin were quantitatively analyzed. The panoramic scanning files were opened by using CaseViewer software, a picture view with the length of about 3.8 mm was randomly selected, and the pictures were saved. The number of all the hair follicles and the number of the melanin-containing hair follicles in the picture were counted respectively by using ipwin32 software. The proportion of the melanin-containing hair follicles was calculated according to the following formula: Proportion of melanin-containing hair follicles = number of melanin-containing follicles/number of all follicles"}, "[4]": {"tested_on": "imiquimod-induced C3H/HeJ mice alopecia areata model", "assay": "Imiquimod-induced mouse alopecia areata model: hair growth", "type": "in vivo", "details": "for Hair growth rate (%): listed as test drug", "protocol": "• 1) Animals: female C3H/He mice, SPF, aged 6-8 weeks at grouping. The animals were provided by Beijing Viewsolid Biotech. • 2) Reagents, positive drugs and test drugs\nAfter one week of adaptive feeding of C3H/HeJ mice: modeling was performed by applying imiquimod ointment to the neck, 3 times a week. The mice were carefully taken out, and about 0.05 g of 5% imiquimod ointment was dipped with a clean medical cotton swab and then applied evenly to the skin on the neck over a range of about 1.5 cm×1.5 cm. Before each application, the local part was cleaned by normal saline to remove the residual drug in the previous time. The continuous administration time was no longer than 10 weeks. When alopecia areata with an area size > 1 cm×1 cm was formed at the administration part, the administration was stopped, proving that a preparation model was successful. The mice in the normal control group were modeled by using blank ointment (vaseline ointment).\nDuring the period from the first administration to the end of the last administration after the alopecia areata modeling was successful, the alopecia areata part of each mouse was photographed once every 3 days, the photographing distance, angle and magnification times were fixed, and the hair growth of the alopecic areas on the backs of the mice was recorded.\nVisual quantification of the alopecia area images was performed using ImageJ software. The hair growth area (a) and hair loss area (b) were calculated. The hair growth rate was counted and analyzed: hair growth rate (%) = (a/b)* 100%. The newly grown hairs at the alopecia areata part of the mice in each group were scored based on the hair growth rate. Table 14 Scoring criteria of newly grown hairs"}}, "note": "“And” between values parts separate entries of the source, which are not always exact repeats. Equal entries are not always repeated. Marks after values point to notes of the source that are not given here."}
{"smiles": "CN(c1ncnc2[nH]ccc12)[C@@H]1CCc2cc(C#N)nn2C1", "note": "[compound I]", "values": [{"measurement": "Enlargement of follicular orifice", "setting": "[1]; 1% gel", "value": "1.50 ± 0.17 and 1.50"}, {"measurement": "Enlargement of follicular orifice", "setting": "[1]; 2% gel", "value": "1.30 ± 0.26 and 1.30"}, {"measurement": "Hair depigmentation area scoring", "setting": "[2]; Day 0 (before administration), 0.5% compound I gel group", "value": 3.80}, {"measurement": "Hair depigmentation area scoring", "setting": "[2]; Day 0 (before administration), 1% compound I gel group", "value": 3.70}, {"measurement": "Hair depigmentation area scoring", "setting": "[2]; Day 0 (before administration), 2% compound I gel group", "value": 3.80}, {"measurement": "Hair depigmentation area scoring", "setting": "[2]; Day 10, 0.5% compound I gel, 30 mg topical twice a day", "value": "3.60 **"}, {"measurement": "Hair depigmentation area scoring", "setting": "[2]; Day 10, 1% compound I gel, 30 mg topical twice a day", "value": "3.90 **"}, {"measurement": "Hair depigmentation area scoring", "setting": "[2]; Day 10, 2% compound I gel, 30 mg topical twice a day", "value": "4.00 **"}, {"measurement": "Hair depigmentation area scoring", "setting": "[2]; Day 20, 0.5% compound I gel, 30 mg topical twice a day", "value": "3.60 **"}, {"measurement": "Hair depigmentation area scoring", "setting": "[2]; Day 20, 1% compound I gel, 30 mg topical twice a day", "value": "3.60 **"}, {"measurement": "Hair depigmentation area scoring", "setting": "[2]; Day 20, 2% compound I gel, 30 mg topical twice a day", "value": "3.50 **"}, {"measurement": "Hair depigmentation area scoring", "setting": "[2]; Day 30, 0.5% compound I gel, 30 mg topical twice a day", "value": "3.30 **"}, {"measurement": "Hair depigmentation area scoring", "setting": "[2]; Day 30, 1% compound I gel, 30 mg topical twice a day", "value": "3.40 **"}, {"measurement": "Hair depigmentation area scoring", "setting": "[2]; Day 30, 2% compound I gel, 30 mg topical twice a day", "value": "3.10 **"}, {"measurement": "Hair depigmentation area scoring", "setting": "[2]; Day 35, 0.5% compound I gel, 30 mg topical twice a day", "value": "3.20 **"}, {"measurement": "Hair depigmentation area scoring", "setting": "[2]; Day 35, 1% compound I gel, 30 mg topical twice a day", "value": "3.10 **"}, {"measurement": "Hair depigmentation area scoring", "setting": "[2]; Day 35, 2% compound I gel, 30 mg topical twice a day", "value": "2.90 **"}, {"measurement": "Hair depigmentation area scoring", "setting": "[2]; Day 38, 0.5% compound I gel, 30 mg topical twice a day", "value": "3.20 **"}, {"measurement": "Hair depigmentation area scoring", "setting": "[2]; Day 38, 1% compound I gel, 30 mg topical twice a day", "value": "2.90 **"}, {"measurement": "Hair depigmentation area scoring", "setting": "[2]; Day 38, 2% compound I gel, 30 mg topical twice a day", "value": "2.60 **"}, {"measurement": "Hair depigmentation area scoring", "setting": "[2]; Day 41, 0.5% compound I gel, 30 mg topical twice a day", "value": "2.90 **"}, {"measurement": "Hair depigmentation area scoring", "setting": "[2]; Day 41, 1% compound I gel, 30 mg topical twice a day", "value": "2.60 **"}, {"measurement": "Hair depigmentation area scoring", "setting": "[2]; Day 41, 2% compound I gel, 30 mg topical twice a day", "value": "2.30 **"}, {"measurement": "Hair depigmentation area scoring", "setting": "[2]; Day 44, 0.5% compound I gel, 30 mg topical twice a day", "value": "2.80 **"}, {"measurement": "Hair depigmentation area scoring", "setting": "[2]; Day 44, 1% compound I gel, 30 mg topical twice a day", "value": "2.50 **"}, {"measurement": "Hair depigmentation area scoring", "setting": "[2]; Day 44, 2% compound I gel, 30 mg topical twice a day", "value": "2.20 **"}, {"measurement": "Hair depigmentation area scoring", "setting": "[2]; Day 47, 0.5% compound I gel, 30 mg topical twice a day", "value": "2.60 **"}, {"measurement": "Hair depigmentation area scoring", "setting": "[2]; Day 47, 1% compound I gel, 30 mg topical twice a day", "value": "2.40 **"}, {"measurement": "Hair depigmentation area scoring", "setting": "[2]; Day 47, 2% compound I gel, 30 mg topical twice a day", "value": "2.20 **"}, {"measurement": "mean inhibitory rate of depigmentation area scores", "setting": "[2]; Day 50, 0.5% compound I gel, 30 mg (5 mg/cm^2), compared with the model control group", "value": 52.0, "unit": "%"}, {"measurement": "Hair depigmentation area scoring", "setting": "[2]; Day 50, 0.5% compound I gel, 30 mg topical twice a day", "value": "2.50 **"}, {"measurement": "mean inhibitory rate of depigmentation area scores", "setting": "[2]; Day 50, 1% compound I gel, 30 mg (5 mg/cm^2), compared with the model control group", "value": 54.9, "unit": "%"}, {"measurement": "Hair depigmentation area scoring", "setting": "[2]; Day 50, 1% compound I gel, 30 mg topical twice a day", "value": "2.30 **"}, {"measurement": "mean inhibitory rate of depigmentation area scores", "setting": "[2]; Day 50, 2% compound I gel, 30 mg (5 mg/cm^2), compared with the model control group", "value": 58.8, "unit": "%"}, {"measurement": "Hair depigmentation area scoring", "setting": "[2]; Day 50, 2% compound I gel, 30 mg topical twice a day", "value": "2.10 **"}, {"measurement": "mean inhibitory rate of depigmentation area scores", "setting": "[2]; day 50, high concentration (2%) compound I gel, compared with the blank preparation group", "value": 51.2, "unit": "%"}, {"measurement": "mean inhibitory rate of depigmentation area scores", "setting": "[2]; day 50, low concentration (0.5%) compound I gel, compared with the blank preparation group", "value": 41.9, "unit": "%"}, {"measurement": "mean inhibitory rate of depigmentation area scores", "setting": "[2]; day 50, medium concentration (1%) compound I gel, compared with the blank preparation group", "value": 46.5, "unit": "%"}, {"measurement": "therapeutic effect (comparison)", "setting": "[3]; 1% and 2% compound I gel, reduction of melanin-containing hair follicles in vitiligo model", "value": "equivalent to that of 1.5% ruxolitinib and superior to that of 0.03% tacrolimus"}, {"measurement": "Number of melanin-containing hair follicles", "setting": "[3]; 1% compound I gel", "value": 30.3}, {"measurement": "Proportion of melanin-containing hair follicles (%)", "setting": "[3]; 1% compound I gel", "value": "29.7 ± 9.1% and 29.7%"}, {"measurement": "Number of melanin-containing hair follicles", "setting": "[3]; 1% compound I gel, listed as Compound I", "value": "30.3 ± 14.8"}, {"measurement": "number of the melanin-containing hair follicles, increase compared to the blank preparation group", "setting": "[3]; 2% compound I gel", "value": 37.9, "unit": "%"}, {"measurement": "number of the melanin-containing hair follicles, times that of the model control group", "setting": "[3]; 2% compound I gel", "value": "about 4 times"}, {"measurement": "proportion of the melanin-containing hair follicles relative to the model control group", "setting": "[3]; 2% compound I gel", "value": "about twice"}, {"measurement": "Number of melanin-containing hair follicles", "setting": "[3]; 2% compound I gel", "value": "26.9*"}, {"measurement": "Proportion of melanin-containing hair follicles (%)", "setting": "[3]; 2% compound I gel", "value": "30.6 ± 6.2% and 30.6%"}, {"measurement": "Number of melanin-containing hair follicles", "setting": "[3]; 2% compound I gel, listed as Compound I", "value": "26.9 ± 7.4"}, {"measurement": "therapeutic effect (comparison)", "setting": "[3]; 2% compound I gel, proportion of melanin-containing hair follicles", "value": "equivalent to that of the ruxolitinib ointment"}, {"measurement": "Hair growth rate (%)", "setting": "[4]; 3 mg/kg oral by gavage twice a day for one month, Day 30", "value": "71.62 ± 5.56", "unit": "%"}, {"measurement": "amelioration effect (comparison)", "setting": "[4]; 3 mg/kg oral, hair growth at alopecic area, Day 30", "value": "equivalent to that of the positive control drug at the dose of 10 mg/kg"}, {"measurement": "Hair growth rate (%)", "setting": "[4]; 10 mg/kg oral by gavage twice a day for one month, Day 30", "value": "83.93 ± 5.58", "unit": "%"}, {"measurement": "therapeutic effect (comparison)", "setting": "[4]; mouse alopecia areata model, oral", "value": "superior to that of the positive drug baricitinib"}]}
